Experimental data from patent US12454525B2, “IL4I1 inhibitors and methods of use” (Merck Sharp & Dohme LLC, priority 2020, dated 2025).

target: T1, recombinant IL4I1 (Homo sapiens, UniProt Q96RQ9); assay: IL4I1 Enzymatic Assay (Amplex Red/HRP coupled H2O2 detection); format: biochemical; details: 240 min; four-hour pre-incubation with compound; 1 nM IL4I1, 1 mM each Phe/Tyr/Trp; ten-point titration; fluorescence readout; read-out: Potency EC50 (nM) (240 min)
T1 construct: purchased R&D Systems 5684-AO-020
T1 sequence (Q96RQ9 22-567): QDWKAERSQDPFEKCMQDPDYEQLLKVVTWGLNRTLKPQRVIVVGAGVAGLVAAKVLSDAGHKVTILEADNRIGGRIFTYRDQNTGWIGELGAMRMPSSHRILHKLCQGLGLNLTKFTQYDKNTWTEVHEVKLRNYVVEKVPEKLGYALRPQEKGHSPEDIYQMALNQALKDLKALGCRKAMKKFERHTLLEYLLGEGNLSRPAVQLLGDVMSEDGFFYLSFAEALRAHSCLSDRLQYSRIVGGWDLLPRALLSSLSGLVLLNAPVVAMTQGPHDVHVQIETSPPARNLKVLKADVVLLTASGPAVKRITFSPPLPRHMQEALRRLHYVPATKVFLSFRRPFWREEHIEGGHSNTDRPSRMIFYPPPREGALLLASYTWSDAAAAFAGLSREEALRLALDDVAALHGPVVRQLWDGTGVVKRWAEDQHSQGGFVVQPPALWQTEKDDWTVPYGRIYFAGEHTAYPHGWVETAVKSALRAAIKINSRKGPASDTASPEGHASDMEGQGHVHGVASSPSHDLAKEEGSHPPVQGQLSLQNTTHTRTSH
Description: Interleukin 4 inducible protein 1 (IL4I1) is an L-amino oxidase that catalyzes the oxidation of aromatic residues (Phe, Trp and Tyr): L-amino acid+H2O+O2→2-oxo acid+NH3+H2O2. Equal molar of H2O2 and the corresponding alpha-ketoacid are produced when IL4I1 and substrate are added. In this assay, the hydrogen peroxide generated by IL4I1 is then detected through a coupled reaction with Amplex Red (10-acetyl-3,7-dihydroxyphenoxazine) and […] (HRP) to produce Resorufin product that could be detected in the form of fluorescence signals. The assessment of the inhibitory effect of small molecules (EC50) on IL4I1 is measured by the effectiveness of the compounds to inhibit the production of H2O2.
Using this assay, the potency (EC50) of each compound was determined from a ten-point (1:3 serial dilution) titration curve using the following outlined procedure. To each well of a black flat-bottom Greiner (Cat #781076) 384 well-plate, 25 nL of compound (0.1% DMSO in final assay volume of 25 μL) was dispensed, followed by the addition of 12.5 μL of 1x assay buffer (50 mM Hepes 7.0 and 0.005% Tween20 (Sigma, Cat #P8341; low peroxide grade)) containing 2 nM of recombinant IL4I1 (R&D Systems, Cat #5684-AO-020). Plates were placed in an ambient temperature humidified chamber for a four-hour pre-incubation with compound. Subsequently, each reaction was initiated by the addition of 12.5 μL 1x assay buffer containing 2 mM of each aromatic amino acids (Phe/Tyr/Trp), 0.1 mM Amplex Red and 2 U/mL of HRP. The final reaction in each well of 25 μL consists of 1 nM of IL411, 1 mM of each residues (Phe, Tyr and Trp), 0.05 mM Amplex Red and 1 U/mL of HRP. It should be noted that the concentrations of Amplex Red and HRP used here are in excess such that the conversion of H2O2 to Resorufin product occurs instantaneously and non-rate limiting. Reactions were allowed to proceed for 120 minutes followed by fluorescence readout on a Spectramax with the following set parameters: 544 nm excitation/590 nm emission, 570 nm cutoff (EnVision is an alternative reader). Dose-response curves were generated by plotting percent effect (% product conversion; Y-axis) vs. Log10 compound concentrations (X-axis). EC50 values were calculated using a non-linear regression, four-parameters sigmoidal dose-response model and are shown in Table 16.

Row | Compound | EC50
1 | O=c1[nH]c2ccccc2n1Cc1ccc(CN2CCOCS2(=O)=O)cc1 [Example 20, 1-(4-((3,3-dioxido-1,3,4-oxathiazinan-4-yl)methyl)benzyl)-1,3-dihydro-2H-benzo[d]imidazol-2-one] | 7 nM
2 | Cc1cc(Cn2c(=O)[nH]c3ccccc32)ccc1Cc1nnco1 [Example 54, 1-(4-((1,3,4-oxadiazol-2-yl)methyl)-3-methylbenzyl)-1,3-dihydro-2H-benzo[d]imidazol-2-one] | 7 nM
3 | O=c1[nH]c2ccccc2n1CCN1CCCCC1 [Example 62, 1-[2-(piperidin-1-yl)ethyl]-1,3-dihydro-2H-benzimidazol-2-one] | 1240 nM
4 | CN(Cc1ccc(Cn2c(=O)[nH]c3ccccc32)cc1)S(C)(=O)=O [Example 21, N-methyl-N-({4-[(2-oxo-2,3-dihydro-1H-benzimidazol-1-yl)methyl]phenyl}methyl) methanesulfonamide] | 8 nM
5 | O=C1CCCN1Cc1sc(Cn2c(=O)[nH]c3ccccc32)cc1Cl [Example 36, 1-((4-chloro-5-((2-oxopyrrolidin-1-yl)methyl)thiophen-2-yl)methyl)-1,3-dihydro-2H-benzo[d]imidazol-2-one] | 9 nM
6 | N#Cc1cc(Cn2c(=O)[nH]c3ccccc32)ccc1CN1CCCC1=O [Example 24, 5-((2-oxo-2,3-dihydro-1H-benzo[d]imidazol-1-yl)methyl)-2-((2-oxopyrrolidin-1-yl)methyl) benzonitrile] | 24 nM
7 | O=c1[nH]c2ccccc2n1Cc1ccc(Cc2nnco2)cc1 [Example 3, 1-(4-((1,3,4-oxadiazol-2-yl)methyl)benzyl)-1,3-dihydro-2H-benzo[d]imidazol-2-one] | 53 nM
8 | O=C(Cc1ccc(Cn2c(=O)[nH]c3ccccc32)cc1)NC1CCC(F)C1 (centres unmarked) [Example 106, N-(3-fluorocyclopentyl)-2-(4-((2-oxo-2,3-dihydro-1H-benzo[d]imidazol-1-yl)methyl)phenyl)acetamide] | 38 nM
9 | O=C(c1cccc(Cn2c(=O)[nH]c3ccccc32)c1)N1CCC1 [Example 102, 1-(3-(azetidine-1-carbonyl)benzyl)-1,3-dihydro-2H-benzo[d]imidazol-2-one] | 8 nM
10 | O=c1[nH]c2ccccc2n1CC1CCCOC1 (centres unmarked) [Example 59, 1-[(oxan-3-yl)methyl]-1,3-dihydro-2H-benzimidazol-2-one] | 2930 nM
11 | CC(C1CCCCC1)n1c(=O)[nH]c2ccccc21 (centres unmarked) [Example 88, 1-(1-cyclohexylethyl)-1,3-dihydro-2H-benzo[d]imidazol-2-one] | 10000 nM
12 | O=C1CC2(CC2)CN1Cc1ccc(Cn2c(=O)[nH]c3ccccc32)cc1 [Example 22, 1-({4-[(6-oxo-5-azaspiro[2.4]heptan-5-yl)methyl]phenyl}methyl)-1,3-dihydro-2H-benzimidazol-2-one] | 8 nM
13 | O=c1[nH]c2ccccc2n1CCCOc1cccc2cccnc12 [Example 97, 1-(3-(quinolin-8-yloxy)propyl)-1,3-dihydro-2H-benzo[d]imidazol-2-one] | 45 nM
14 | CN(C)C(=O)Cc1cccc(Cn2c(=O)[nH]c3ccccc32)c1 [Example 105, N,N-dimethyl-2-(3-((2-oxo-2,3-dihydro-1H-benzo[d]imidazol-1-yl)methyl)phenyl)acetamide] | 10 nM
15 | CC(=O)NCc1ccc(Cn2c(=O)[nH]c3ccc(F)cc32)cc1 [Example 94, N-(4-((6-fluoro-2-oxo-2,3-dihydro-1H-benzo[d]imidazol-1-yl)methyl)benzyl)acetamide] | 9 nM
16 | O=c1[nH]c2ccccc2n1CCC1CCCCC1 [Example 58, 1-(2-cyclohexylethyl)-1,3-dihydro-2H-benzimidazol-2-one] | 936 nM
17 | O=C1N(Cc2ccc(Cn3c(=O)[nH]c4ccccc43)cc2)CCC1(F)F [Example 43, 1-(4-((3,3-difluoro-2-oxopyrrolidin-1-yl)methyl)benzyl)-1,3-dihydro-2H-benzo[d]imidazol-2-one] | 10 nM
18 | CC(=O)N[C@H]1CC[C@H](Cn2c(=O)[nH]c3ccccc32)CC1 [Example 99, N-((1r,4r)-4-((2-oxo-2,3-dihydro-1H-benzo[d]imidazol-1-yl)methyl)cyclohexyl)acetamide] | 2690 nM

Row | Compound | EC50
19 | O=c1[nH]c2ccccc2n1Cc1cccc(-c2nnco2)c1 [Example 27, 1-(3-(1,3,4-oxadiazol-2-yl)benzyl)-1,3-dihydro-2H-benzo[d]imidazol-2-one] | 7 nM
20 | CNC(=O)c1cccc(Cn2c(=O)[nH]c3ccccc32)c1 [Example 29, N-methyl-3-[(2-oxo-2,3-dihydro-1H-benzimidazol-1-yl)methyl]benzamide] | 5 nM
21 | CC(C)C1CC(Cn2c(=O)[nH]c3ccccc32)C1 (centres unmarked) [Example 57, 1-{[3-(propan-2-yl)cyclobutyl]methyl}-1,3-dihydro-2H-benzimidazol-2-one] | 3040 nM
22 | O=c1[nH]c2ccccc2n1Cc1cc(C(F)F)cc(C(F)F)c1 [Example 30, 1-{[3,5-bis(difluoromethyl)phenyl]methyl}-1,3-dihydro-2H-benzimidazol-2-one] | 9 nM
23 | CC(=O)NCc1ccc(Cn2c(=O)[nH]c3ccc(C)cc32)cc1 [Example 65, N-(4-((6-methyl-2-oxo-2,3-dihydro-1H-benzo[d]imidazol-1-yl)methyl)benzyl)acetamide] | 24 nM
24 | CC(=O)NCc1ccc(Cn2c(=O)[nH]c3ccccc32)cc1Cl [Example 44, N-(2-chloro-4-((2-oxo-2,3-dihydro-1H-benzo[d]imidazol-1-yl)methyl)benzyl)acetamide] | 13 nM
25 | O=C1CCCN1Cc1ncc(Cn2c(=O)[nH]c3ccccc32)cc1Cl [Example 25, 1-((5-chloro-6-((2-oxopyrrolidin-1-yl)methyl)pyridin-3-yl)methyl)-1,3-dihydro-2H-benzo[d]imidazol-2-one] | 47 nM
26 | CC(=O)NCc1ccc(Cn2c(=O)[nH]c3ccccc32)cc1 [Example 11, N-(4-((2-oxo-2,3-dihydro-1H-benzo[d]imidazol-1-yl)methyl)benzyl)acetamide] | 6 nM
27 | O=c1[nH]c2ccsc2n1Cc1ccccc1 [Example 113, 3-benzyl-1,3-dihydro-2H-thieno[2,3-d]imidazol-2-one] | 2850 nM
28 | COc1ccccc1Cn1c(=O)[nH]c2cccc(C)c21 [Example 91, 1-(2-methoxybenzyl)-7-methyl-1,3-dihydro-2H-benzo[d]imidazol-2-one] | 1340 nM
29 | O=c1[nH]c2ccccc2n1Cc1ccc(Cc2nnco2)c(Cl)c1 [Example 4, 1-(4-((1,3,4-oxadiazol-2-yl)methyl)-3-chlorobenzyl)-1,3-dihydro-2H-benzo[d]imidazol-2-one] | 6 nM
30 | CNC(=O)c1csc(Cn2c(=O)[nH]c3ccccc32)c1 [Example 13, N-methyl-5-((2-oxo-2,3-dihydro-1H-benzo[d]imidazol-1-yl)methyl)thiophene-3-carboxamide] | 6 nM
31 | O=c1[nH]c2cc(Cl)ccc2n1Cc1ccc(Cc2nnco2)cc1 [Example 100] | 784 nM
32 | O=C1CCCN1Cc1ccc(Cn2c(=O)[nH]c3ccccc32)cc1 [Example 1, 1-(4-((2-oxopyrrolidin-1-yl)methyl)benzyl)-1,3-dihydro-2H-benzo[d]imidazol-2-one] | 13 nM
33 | O=c1[nH]c2sccc2n1Cc1ccccc1 [Example 112, 1-benzyl-1,3-dihydro-2H-thieno[2,3-d]imidazol-2-one] | 1320 nM
34 | CC(=O)NCc1ccc(Cn2c(=O)[nH]c3ccccc32)cc1C [Example 49, N-(2-methyl-4-((2-oxo-2,3-dihydro-1H-benzo[d]imidazol-1-yl)methyl)benzyl)acetamide] | 10 nM
35 | O=c1[nH]c2cc(F)c(F)cc2n1Cc1ccccc1 [Example 69, 1-benzyl-5,6-difluoro-1,3-dihydro-2H-benzo[d]imidazol-2-one] | 2270 nM
